Read-outs that look alike come from different tables or passages of the source.

The subject of series [1] is T. cruzi trypomastigotes Dm28c-Luc. As to the kind of experiment: Trypanocidal activity against trypomastigotes, Dm28c-Luc clone (luciferase). The note with it: 24 h, mean ± SD of three experiments; for IC50: read-out: Trypanocidal Effect Trypomastigotes Dm28c-Luc IC50; for IC90: read-out: Trypanocidal Effect Trypomastigotes Dm28c-Luc IC90. It counts as cell-based, Trypanosoma cruzi. The procedure:
(§1) T. cruzi Dm28c-Luc clone, genetically modified to express firefly luciferase, and Y strain were used in the drug screening assay. Vero cells were infected with T. cruzi, Dm28c-Luc or Y strain, in a 10:1 parasites/host cell ratio and maintained at 37 °C in humidified atmosphere of 5% CO2. Trypomastigotes were harvested from the infected culture supernatant on the 4th day post-infection (dpi) followed by quantification of the number of parasites/mL in Neubauer chamber.
(§2) Screening of the compounds was performed against trypomastigotes and intracellular amastigote forms. Trypomastigotes (1 × 10^6 parasites/well), Dm28c-Luc clone and Y strain, were incubated for 24 h at 37 °C with the 1,4 naphthoquinone derivatives and Bz (0.41–100 μM) and their viability determined by the activity of the luciferase enzyme, after addition of luciferin substrate (300 μg/mL), or CellTiter Glo. The luminescent signal was detected on the FlexStation 3 reader.

Series [2] deals with T. cruzi Y strain. In words: Murine model of T. cruzi acute infection. Type of series: in vivo, Trypanosoma cruzi.
Description: Male Swiss Webster mice (18 g) were obtained from the Institute of Science and Technology in Bio-models of the Oswaldo Cruz Foundation, Rio de Janeiro, Brazil. […] The animals received water and an ad libitum feeding regimen. Mice were intraperitoneally (i.p.) infected with bloodstream trypomastigotes of T. cruzi Y strain (10^4 parasites/animal) and parasitemia was daily evaluated from the 4th dpi. […] Daily treatment (0.1 mL i.p. dose) started at 5 days post-infection (dpi) with positive parasitemia and followed up to 10 dpi.
Parasitemia was estimated by Pizzy-Brener method [47]. Briefly, animals parasitemia were determined by microscopic quantification of fresh blood (5 µL) collected from animals’ caudal vein. Mortality was daily evaluated up to 26 days and expressed in survival rates.
The test system of series [3] is T. cruzi trypomastigotes Y strain. In words: Trypanocidal activity against trypomastigotes, Y strain (CellTiter Glo). It counts as cell-based. The note with it: Trypanosoma cruzi, 24 h. The procedure: as §1, §2
For series [4], the system named is intracellular amastigotes of T. cruzi (Dm28c-Luc clone). As to the kind of experiment: Luminescent screening against intracellular amastigotes in infected Vero cells. Type of series: cell-based, Trypanosoma cruzi. To be noted: infected Vero cells treated for 72 h, mean ± SD of three experiments. The procedure: as §1
The effect of the compounds against intracellular amastigotes was screened in 72 h T. cruzi-infected Vero cells. Briefly, Vero cells seeded (1.5 × 10^4 cells/well) on 96-well white plate infected with trypomastigotes (Dm28c-Luc) at a 10:1 multiplicity of parasites/cell. After 24 h of infection, the cultures were washed with PBS and then, treated for 72 h at 37 °C with naphthoquinone derivatives and Bz (0.41–100 µM). After treatment, luciferin (300 µg/mL) was added to the culture and the viability of the parasites was assessed by reading the luminescent signal using the FlexStation 3 reader. Controls were also performed in no-toxic concentrations of DMSO (≤1%).

Series [5] is described as follows: Cytotoxicity in vitro assay (CellTiter Glo, ATP level). It counts as cell-based. The note with it: African green monkey, Vero cells. As for the experimental part: The cultures were maintained at 37 °C in humidified atmosphere of 5% CO2.
To evaluate the toxic effects of the 1,4-naphthoquinone derivatives on mammalian cells, Vero cells were seeded at a density of 1.5 × 10^4 cells/well in 96-well white culture plates. Twenty-four hours later, the cell cultures were incubated for 72 h at 37 °C with 1,4-naphthoquinone derivatives (series 1(a–i) and 2(a–j)) and Bz (500–1.9 µM) diluted in RPMI medium supplemented with 10% FBS. After incubation, the cell viability, measured by ATP level, was assessed by adding 20 µL/well of the CellTiter Glo (Promega Corporation, Madison, WI, EUA) solution. The luminescent signal was read on the FlexStation 3 reader (Molecular Devices, Sunnyvale, CA, USA). […] All treatments and controls were performed at low concentration (≤1%) of dimethyl sulfoxide (DMSO). At least three independent assays were performed in duplicate.
In general terms: ATP-based viability assays read luminescence as a measure of living cells.

Series [6] is described as follows: Mouse acute toxicity (NOAEL). Type of series: in vivo.
Description: Treated animals were separated into two groups: (1) 5 consecutive doses of 50 mg/kg and (2) 100 mg/kg every 1h, totaling a cumulative dose of 250 mg/kg and 500 mg/kg, respectively. Untreated and vehicle treated animals (PBS with 3% Tween-80) were used as control groups. Mice were inspected for toxic and sub-toxic symptoms according to Organization for Economic Co-operation and Development (OECD) guidelines [46].
The subject of series [7] is T. cruzi. On the set-up: method as in PMID 18788881. To be noted: C3H/HeN female infected mice, cited from earlier work.
The mark [8] stands for this setting: read-out: Trypanocidal Effect Trypomastigotes Y Strain IC50, trypomastigotes, 24 h, mean ± SD of three experiments.
Setting [9] is: read-out: Trypanocidal Effect Trypomastigotes Y Strain IC90, trypomastigotes, 24 h, mean ± SD of three experiments.
[10] abbreviates: Table 1, mean ± SD, read-out: Vero Cells Toxicity CC50.
Setting [11] is: trypomastigotes, mean ± SD of three experiments, read-out: Trypanocidal Effect Trypomastigotes Y Strain IC50.
Where [12] appears, read: trypomastigotes, mean ± SD of three experiments, read-out: Trypanocidal Effect Trypomastigotes Y Strain IC90.

`O=C(Cn1ccnc1[N+](=O)[O-])NCc1ccccc1` [Bz, benznidazole, reference compound]: the IC50 (commonly the concentration at which inhibition is half-maximal) in series [1] (Trypanosoma cruzi) worked out at 17.5 ± 3.3 µM; in series [3] (setting [8]), 14.3 ± 3.2 µM; in series [4] (Trypanosoma cruzi), 1.4 ± 0.4 µM. Besides, the IC90 (in general, the point of the concentration-response curve where the effect stands at 90%) in series [1] (Trypanosoma cruzi) was above 100 µM; in series [3] (setting [9]) it was above 100 µM; in series [4] (Trypanosoma cruzi), 7.9 ± 1.2 µM. Further, the “parasitemia by microscopic analysis” value in series [2] (infected mice treated orally with Bz 100 mg/kg/day) was “undetectable parasitemia”. Further, the survival result in series [2] (infected mice treated orally with Bz 100 mg/kg/day, 26 days) is listed as “survived during all period analyzed”. In addition, the CC50 – broadly, the concentration giving 50% cytotoxicity – at 72 h is above 500 µM in series [5] (setting [10]) and above 500 µM in series [5] (Table 2, read-out: CC50 Vero).

On to `O=C1C(O)=C(C(Sc2ccc(Cl)cc2Cl)c2ccccc2)C(=O)c2ccccc21` (stereo not shown) [Compound 1d, 2-(((2,4-dichlorophenyl)thio)(phenyl)methyl)-3-hydroxynaphthalene-1,4-dione], for which the melting point (in general, the temperature of the solid-liquid transition) is 144 to 145 °C. Besides, in series [1] (Trypanosoma cruzi), the IC50 worked out at 9.3 ± 1.1 µM and the IC90 turned out to be 23.3 ± 2.1 µM. For the same compound, in series [3] (setting [11]), the IC50 was 2.8 ± 0.6 µM. Moreover, the IC90 in series [3] (setting [12]) was determined as 5.8 ± 1.1 µM. Further, in series [4] (Trypanosoma cruzi, Vero, 72 h), the half-maximal inhibitory concentration (IC50) came to 13.5 ± 2.1 µM. In series [4] (Trypanosoma cruzi), the IC90 amounted to 31.1 ± 3.1 µM. Besides, in series [5] (setting [10]), the CC50 at 72 h is 82.1 ± 5.1 µM. The CC50 at 72 h in series [5] (Table 2, read-out: CC50 Vero) was found to be 82.1 ± 5.1 µM.

Compound `O=C1C(O)=C(C(Sc2ccc(Cl)cc2)c2cn(-c3cc(Cl)cc(Cl)c3)nn2)C(=O)c2ccccc21` (stereo not shown) [Compound 1e, 2-(((4-chlorophenyl)thio)(1-(3,5-dichlorophenyl)-1H-1,2,3-triazol-4-yl)methyl)-3-hydroxynaphthalene-1,4-dione] came in with a melting point of 142 to 143 °C. In addition, in series [1] (Trypanosoma cruzi), the IC50 was around 4.5 µM and the IC90 is 16.5 ± 2.8 µM. Besides, in series [3] (setting [8]), the IC50 is around 4.5 µM. In series [3] (setting [11]), the IC50 amounted to 4.7 ± 1.9 µM. Besides, the IC90 in series [3] (setting [12]) is 5.5 ± 0.9 µM. Further, in series [4] (Trypanosoma cruzi, Vero, 72 h), half-maximal inhibition (IC50) required 9.1 ± 0.7 µM. Also, in series [4] (Trypanosoma cruzi), the IC90 stood at 27.9 ± 3.9 µM. In series [5] (setting [10]), the CC50 at 72 h stood at 34.1 ± 2.9 µM. Also, the CC50 at 72 h in series [5] (Table 2, read-out: CC50 Vero) was 34.1 ± 7.5 µM.

In the case of `COc1ccc(C(Sc2ccc(Cl)cc2)C2=C(O)C(=O)c3ccccc3C2=O)cc1` (stereo not shown) [Compound 1g, 2-(((4-chlorophenyl)thio)(4-methoxyphenyl)methyl)-3-hydroxynaphthalene-1,4-dione], the IC90 was 19.3 ± 3.4 µM in series [1]; at most 19.3 µM in series [1] (Trypanosoma cruzi); at most 19.3 µM in series [3] (setting [9]); 16.8 ± 2.5 µM in series [3] (setting [12]); 11.4 ± 2.1 µM in series [4] (Trypanosoma cruzi). Besides, the IC50 in series [1] (Trypanosoma cruzi) was 8.1 ± 0.6 µM; in series [3] (setting [11]), 10.2 ± 0.5 µM; in series [4] (Trypanosoma cruzi, Vero, 72 h), at most 6.9 µM; in series [4], 6.7 ± 1.8 µM. In series [2] (Swiss Webster male mice, 10^4 Y strain trypomastigotes, i.p. treatment 5 consecutive days from 5 dpi, C2 50 and 100 mg/kg/day, 1g 50 mg/kg/day), the “parasitemia / parasitic load” value is on record as “not efficient in eliminating the parasites”. Moreover, in series [2] (Swiss Webster male mice, Y strain, i.p. treatment from 5 dpi, C2 50 and 100 mg/kg/day, 1g 50 mg/kg/day), the “prevention of mortality / survival” value was “not able to prevent mortality”. Besides, the CC50 at 72 h came out at 99.9 ± 12.5 µM in series [5] (setting [10]) and 99.5 ± 12.5 µM in series [5] (Table 2, read-out: CC50 Vero). Also, in series [6] (intraperitoneal, cumulative dose of 500 mg/kg (5 x 100 mg/kg), n = 2), the “death in acute toxicity assessment” value is “one animal died”. Also, the “changes in mouse behavioral characteristics” value in series [6] (oral and i.p. cumulative doses, acute toxicity assessment) is “not observed”. The “toxic side effects according to the OECD guidelines” value in series [6] (oral and i.p., five doses of 50 mg/kg 1 h apart, total cumulative dose 250 mg/kg, up to 48 h post-treatment) is “No toxic side effects”.

`COc1ccc(C(Sc2ccccc2C)C2=C(O)C(=O)c3ccccc3C2=O)cc1` (stereo not shown) [Compound 2b, 2-Hydroxy-3-((4-methoxyphenyl)(o-tolylthio)methyl) naphthalene-1,4-dione] displayed a melting point of 54 to 55 °C. Moreover, in series [1] (Trypanosoma cruzi), the IC50 came to 25.9 ± 2.2 µM and the IC90 stood at 31.8 ± 0.9 µM. In addition, the IC50 in series [3] (setting [11]) was determined as 27.9 ± 4.1 µM. Also, the IC90 in series [3] (setting [12]) stood at 37.9 ± 6.1 µM. For the same compound, the IC50 in series [4] (Trypanosoma cruzi, Vero, 72 h) is around 12 µM. This compound showed a concentration for an effect of 90% (IC90) in series [4] (Trypanosoma cruzi) of 27.4 ± 2.4 µM. In series [4], this compound returned an IC50 of 11.3 ± 1.1 µM. Further, the CC50 at 72 h in series [5] (setting [10]) was found to be 44.4 ± 3.4 µM. Also, the CC50 at 72 h in series [5] (Table 2, read-out: CC50 Vero) worked out at 44.4 ± 3.4 µM.

As to `COc1ccc(C(Sc2ccc(F)cc2)C2=C(O)C(=O)c3ccccc3C2=O)cc1` (stereo not shown) [Compound 2e, 2-(((4-fluorophenyl)thio)(4-methoxyphenyl)methyl)-3-hydroxynaphthalene-1,4-dione], the melting point is 132 to 134 °C. Besides, in series [1] (Trypanosoma cruzi), the IC50 was found to be 24.4 ± 4.4 µM and the IC90 was 31.4 ± 4.4 µM. For the same compound, the IC50 in series [3] (setting [11]) was 20.3 ± 4.1 µM. In series [3] (setting [12]), the IC90 is 32.3 ± 5.1 µM. In addition, the IC50 in series [4] (Trypanosoma cruzi, Vero, 72 h) is at most 6.9 µM. In series [4] (Trypanosoma cruzi), this compound came in with an IC90 of 19.7 ± 3.2 µM. This compound also gave an IC50 in series [4] of 6.8 ± 1.5 µM. Besides, the CC50 at 72 h in series [5] (setting [10]) turned out to be 47.7 ± 3.2 µM. For the same compound, the CC50 at 72 h in series [5] (Table 2, read-out: CC50 Vero) is 47.7 ± 3.2 µM.

Regarding `COc1ccc(C(Sc2ccc3ccccc3c2)C2=C(O)C(=O)c3ccccc3C2=O)cc1` (stereo not shown) [Compound 2h, 2-Hydroxy-3-((4-methoxyphenyl)(naphthalen-2-ylthio)methyl) naphthalene-1,4-dione], the melting point lay within 56 to 57 °C. Further, in series [1] (Trypanosoma cruzi), the IC50 stood at 21.7 ± 4.7 µM and the IC90 is 39.7 ± 5.7 µM. In series [3] (setting [11]), the IC50 worked out at 24.5 ± 3.6 µM. Also, the IC90 in series [3] (setting [12]) was 34.5 ± 4.6 µM. In series [4] (Trypanosoma cruzi, Vero, 72 h), this compound came in with an IC50 of 22.4 ± 2.2 µM. The compound further showed an IC90 in series [4] (Trypanosoma cruzi) of 31.5 ± 6.1 µM. In addition, the CC50 at 72 h in series [5] (setting [10]) stood at 63.4 ± 7.1 µM. Besides, the CC50 at 72 h in series [5] (Table 2, read-out: CC50 Vero) was found to be 63.4 ± 7.1 µM.

In the case of `O=C1C(c2ccccc2)=C(c2ccccc2)C(=O)c2ccccc21` [DPNQ, 2,3-diphenyl-1,4-naphthoquinone], the animal survival in series [7] (up to 70 dpi) was 60%. Also, the parasite load result in series [7] is “reduced two-fold the parasite load”.
